According to ChEMBL document CHEMBL1201862, “PubChem BioAssay data set” (2004):
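1) Cells in 96-well plates. 2) Compound, 48 h, 5 concentrations. 3) Linear interpolation between surrounding doses. 4) Unreached endpoint = highest concentration. The concentration for 50% growth inhibition is given as GI50.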 Activity calls are given as the source filed them. No stated cut-off is given here; in the data, active = GI50 up to about 1.1 µM and inactive = higher.

What was measured:
Test in all cases: inhibition of tumour cell growth, NCI panel, 48 h
IGROV-1 = tested on: IGROV-1
MOLT-4 = tested on: MOLT-4
SF-268 = tested on: SF-268
U-251 = tested on: U-251
ACHN = tested on: ACHN
COLO 205 = tested on: COLO 205
SR = tested on: SR
OVCAR-3 = tested on: OVCAR-3
TK-10 = tested on: TK-10
RPMI-8226 = tested on: RPMI-8226
EKVX = tested on: EKVX
HT-29 = tested on: HT-29
Malme-3M = tested on: Malme-3M
T47D = tested on: T47D
NCI-H226 = tested on: NCI-H226
SF-295 = tested on: SF-295
NCI-H23 = tested on: NCI-H23
SNB-75 = tested on: SNB-75
SK-MEL-5 = tested on: SK-MEL-5
NCI/ADR-RES = tested on: NCI/ADR-RES

Row | Structure (SMILES) | GI50 (IGROV-1) | GI50 (MOLT-4) | GI50 (SF-268) | GI50 (U-251) | GI50 (ACHN) | GI50 (COLO 205) | GI50 (SR) | GI50 (OVCAR-3) | GI50 (TK-10) | GI50 (RPMI-8226) | GI50 (EKVX) | GI50 (HT-29) | GI50 (Malme-3M) | GI50 (T47D) | GI50 (NCI-H226) | GI50 (SF-295) | GI50 (NCI-H23) | GI50 (SNB-75) | GI50 (SK-MEL-5) | GI50 (NCI/ADR-RES)
1 | NC1=C(Cl)C(=O)c2ccccc2C1=O | 9.82 µM (inactive) | 5.7 µM (inactive) | 11.2 µM (inactive) | 4.34 µM (inactive) | 9.27 µM (inactive) | 11.3 µM (inactive) | 4.32 µM (inactive) | 2.45 µM (inactive) | 22.2 µM (inactive) | 18.4 µM (inactive) | 14.7 µM (inactive) | 4.99 µM (inactive) | 1.38 µM (inactive) | 2.87 µM (inactive) | 7.35 µM (inactive) | 6.87 µM (inactive) | 1.77 µM (inactive) | 11.3 µM (inactive) | 0.834 µM (active) | 
2 | COc1ccc(C(O)/C(=C/n2ccnc2)c2ccccc2)cc1OC (stereo not given) | > 100 µM (inactive) | > 100 µM (inactive) | > 100 µM (inactive) | > 100 µM (inactive) | > 100 µM (inactive) | > 100 µM (inactive) | > 100 µM (inactive) | > 100 µM (inactive) | > 100 µM (inactive) | > 100 µM (inactive) | > 100 µM (inactive) | > 100 µM (inactive) | > 100 µM (inactive) |  | > 100 µM (inactive) | > 100 µM (inactive) | > 100 µM (inactive) | 49.4 µM (inactive) | > 100 µM (inactive) | 
3 | O=C(O)c1ccn(-c2cccc(-n3ccc(C(=O)O)n3)n2)n1 | > 100 µM (inactive) | > 100 µM (inactive) | > 100 µM (inactive) | > 100 µM (inactive) | > 100 µM (inactive) | > 100 µM (inactive) | > 100 µM (inactive) | > 100 µM (inactive) | > 100 µM (inactive) | > 100 µM (inactive) | > 100 µM (inactive) | > 100 µM (inactive) | > 100 µM (inactive) |  | > 100 µM (inactive) | > 100 µM (inactive) | > 100 µM (inactive) | > 100 µM (inactive) | > 100 µM (inactive) | > 100 µM (inactive)
4 | CCC1(O)C(=O)OCc2c1cc1n(c2=O)Cc2c-1nc1ccccc1c2OC (stereo not given) | 0.174 µM (active) | < 0.01 µM (active) | < 0.01 µM (active) | < 0.01 µM (active) | < 0.01 µM (active) | 0.378 µM (active) | < 0.01 µM (active) | 0.257 µM (active) | 3.52 µM (inactive) | < 0.0212 µM (active) | 2.91 µM (inactive) | 0.061 µM (active) | 0.15 µM (active) |  | < 0.01 µM (active) | < 0.01 µM (active) | < 0.0121 µM (active) | < 0.0156 µM (active) | 0.0184 µM (active) | 
5 | Cc1ccc(NC(=O)CC/C(CC(=O)C(C)(C)C)=N\NC(=O)C[n+]2ccccc2)cc1C | > 100 µM (inactive) | 51.2 µM (inactive) | > 100 µM (inactive) | 87.9 µM (inactive) | > 100 µM (inactive) | > 100 µM (inactive) | 78.5 µM (inactive) | > 100 µM (inactive) | > 100 µM (inactive) | 87.7 µM (inactive) | > 100 µM (inactive) | 91.2 µM (inactive) | > 100 µM (inactive) |  | > 100 µM (inactive) | > 100 µM (inactive) | > 100 µM (inactive) | > 100 µM (inactive) | > 100 µM (inactive) | 
6 | COc1ccc(/N=N/C(=NNC(=O)c2ccc(C)cc2)c2ccc(N(C)C)cc2)cc1 | 59.6 µM (inactive) | 20.9 µM (inactive) | > 85.7 µM (inactive) | 63.7 µM (inactive) | 35.1 µM (inactive) | 6.84 µM (inactive) | 23.1 µM (inactive) | 28.4 µM (inactive) | > 100 µM (inactive) | 17.5 µM (inactive) | 37.7 µM (inactive) | 30.3 µM (inactive) | 34.6 µM (inactive) |  | 39.8 µM (inactive) | 28.4 µM (inactive) | 26.4 µM (inactive) | 87.3 µM (inactive) | 27.2 µM (inactive) | 33.8 µM (inactive)
7 | COP(=O)(OC)C(NC(=O)C(F)(F)F)(c1ccccc1)C(F)(F)F (stereo not given) | > 100 µM (inactive) | > 100 µM (inactive) | > 100 µM (inactive) | > 100 µM (inactive) | > 100 µM (inactive) | > 100 µM (inactive) | > 100 µM (inactive) | > 100 µM (inactive) | > 100 µM (inactive) | > 100 µM (inactive) | > 100 µM (inactive) | > 100 µM (inactive) | > 100 µM (inactive) |  | > 100 µM (inactive) | > 100 µM (inactive) | > 100 µM (inactive) | > 100 µM (inactive) | > 100 µM (inactive) | 
8 | Nc1csc(-c2scc3c2OCCO3)c1N | 22.5 µM (inactive) | 27.8 µM (inactive) | 18.8 µM (inactive) | 15.6 µM (inactive) | 36.4 µM (inactive) | 28.8 µM (inactive) | 28.6 µM (inactive) | 14.8 µM (inactive) | 33.1 µM (inactive) | 16.9 µM (inactive) | 18.2 µM (inactive) | 20.7 µM (inactive) | 16 µM (inactive) |  | 17.3 µM (inactive) | 17.7 µM (inactive) | 15.5 µM (inactive) |  | 14.9 µM (inactive) | 22.6 µM (inactive)
9 | CC1(C)OCC(C2OC(OC(=O)c3ccc([N+](=O)[O-])cc3)C3OC(C)(C)OC23)O1 (stereo not given) | > 100 µM (inactive) | > 100 µM (inactive) | 20.5 µM (inactive) | 49 µM (inactive) | 60.5 µM (inactive) | > 100 µM (inactive) | > 100 µM (inactive) | > 100 µM (inactive) | > 100 µM (inactive) | > 100 µM (inactive) | 61.8 µM (inactive) | > 100 µM (inactive) | > 100 µM (inactive) |  | > 100 µM (inactive) | 53.2 µM (inactive) | > 100 µM (inactive) | 16.6 µM (inactive) | > 100 µM (inactive) | 69.5 µM (inactive)
10 | O=C1CCCC2=C1CC1=C(CCCC1=O)N2c1ccccc1C(=O)O | > 100 µM (inactive) | > 100 µM (inactive) | > 100 µM (inactive) | > 100 µM (inactive) | > 100 µM (inactive) |  | > 100 µM (inactive) | > 100 µM (inactive) | > 100 µM (inactive) | > 100 µM (inactive) | > 100 µM (inactive) | > 100 µM (inactive) |  |  | > 100 µM (inactive) |  | > 100 µM (inactive) | > 100 µM (inactive) | > 100 µM (inactive) | > 100 µM (inactive)
11 | CC(C)(O)C(O)COc1c2c(cc3oc(=O)ccc13)OCO2 (stereo not given) | > 100 µM (inactive) | > 100 µM (inactive) | > 100 µM (inactive) | > 100 µM (inactive) | > 100 µM (inactive) | > 100 µM (inactive) | > 100 µM (inactive) | > 100 µM (inactive) | > 100 µM (inactive) | > 100 µM (inactive) | > 100 µM (inactive) | > 100 µM (inactive) | > 100 µM (inactive) |  | > 100 µM (inactive) | > 100 µM (inactive) | > 100 µM (inactive) | 71.9 µM (inactive) | > 100 µM (inactive) | 
